In paper PMC3448645, “Functional Studies of ssDNA Binding Ability of MarR Family Protein TcaR from Staphylococcus epidermidis” (PLoS ONE, 2012):

Legend:
TcaR [1] = biological target: T1, TcaR (Staphylococcus epidermidis, UniProt Q5HLN6); assay: EMSA, inhibition of TcaR-GC33 ssDNA complex; also SPR; format: binding; details: 1 uM GC33 ssDNA, 2 uM TcaR dimer, 2 or 20 uM antibiotic, pH 8.0, room temperature; SPR: 64 nM TcaR, 640 nM antibiotic, pH 7.5, 25 °C
T1 construct: homodimer

TcaR [2] = biological target: T1, TcaR; assay: EMSA, inhibition of TcaR-GC33 ssDNA complex; format: binding; details: 1 uM GC33 ssDNA, 2 uM TcaR dimer, 2 or 20 uM antibiotic, pH 8.0, room temperature

## NC[C@H]1O[C@H](O[C@H]2[C@H](O)[C@@H](O[C@H]3O[C@H](CO)[C@@H](O)[C@H](N)[C@H]3O)[C@H](N)C[C@@H]2N)[C@H](O)[C@@H](O)[C@@H]1O [kanamycin]
TcaR [1]
  EMSA, inhibition of TcaR-GC33 ssDNA complex; also SPR: kanamycin, chloramphenicol and gentamycin interfered with the ssDNA (GC33) binding activity of TcaR

## O=C(N[C@H](CO)[C@H](O)c1ccc([N+](=O)[O-])cc1)C(Cl)Cl [chloramphenicol]
TcaR [2]
  EMSA, inhibition of TcaR-GC33 ssDNA complex: kanamycin, chloramphenicol and gentamycin interfered with the ssDNA (GC33) binding activity of TcaR
